Assay results published in ChEMBL document CHEMBL5465560, “Selectivity Literature for EUbOPEN Chemogenomic Library” (2024).

What was measured:
[1] = molecular target: Tyrosine-protein kinase Lck (Homo sapiens, UniProt P06239); settings: at 3 µM
[2] = molecular target: Ribosomal protein S6 kinase alpha-6 (Homo sapiens, UniProt Q9UK32); settings: at 10 µM
[3] = molecular target: LIM domain kinase 1 (Homo sapiens) (UniProt P53667); settings: at 10 µM
[4] = molecular target: Tyrosine-protein kinase JAK1 (Homo sapiens, UniProt P23458); assay: Selectivity interaction (KinomeScan (DiscoverX)) EUB0001079a JAK1; settings: at 1 µM
[5] = molecular target: Ephrin type-A receptor 2 (Homo sapiens) (UniProt P29317); assay: Selectivity interaction (KinomeScan (DiscoverX)) EUB0000618a EPHA2; settings: at 10 µM
[6] = test system: Tyrosine-protein kinase ABL1 (Homo sapiens), P00519 [F317I]; assay: (§1) Selectivity interaction (KinomeScan (DiscoverX)) EUB0000607a ABL1; settings: at 10 µM
[7] = test system: Tyrosine-protein kinase ABL1 (Homo sapiens), P00519 [M351T]; assay: as §1; settings: at 10 µM
[8] = test system: Tyrosine-protein kinase ABL1 (Homo sapiens), P00519 [E255K]; assay: as §1; settings: at 10 µM
[9] = test system: Tyrosine-protein kinase ABL1 (Homo sapiens), P00519 [H396P]; assay: as §1; settings: at 10 µM
[10] = test system: Tyrosine-protein kinase ABL1 (Homo sapiens), P00519 [F317L]; assay: as §1; settings: at 10 µM
[11] = molecular target: Tyrosine-protein kinase ABL1 (Homo sapiens, UniProt P00519); assay: as §1; settings: at 10 µM
[12] = test system: Tyrosine-protein kinase ABL1 (Homo sapiens), P00519 [Y253F]; assay: as §1; settings: at 10 µM
[13] = test system: Tyrosine-protein kinase ABL1 (Homo sapiens), P00519 [T315I]; assay: as §1; settings: at 10 µM
[14] = test system: Tyrosine-protein kinase ABL1 (Homo sapiens), P00519 [Q252H]; assay: as §1; settings: at 10 µM
[15] = test system: Epidermal growth factor receptor (Homo sapiens), P00533 [UNDEFINED MUTATION]; assay: Selectivity interaction (KinomeScan (DiscoverX)) EUB0000045b EGFR; settings: at 1 µM
[16] = molecular target: Cyclin-dependent kinase 1 (Homo sapiens) (UniProt P06493); assay: Selectivity interaction (Kinase panel (KiNativ target engagement assay in Jurkat cells)) EUB0001635a CDK1; format: cell-based; settings: Selectivity number of off-targets 0.0, Selectivity number of targets 233.0, Source Knowledge https://www.sciencedirect.com/science/article/pii/S2451945619300674?via%3Dihub, at 1 µM
[17] = molecular target: Ribosomal protein S6 kinase alpha-3 (Homo sapiens, UniProt P51812); assay: Selectivity interaction (ActivX KiNativ screen (kinase selectivity in THP-1 cell lysates)) EUB0000639a RPS6KA3; format: subcellular; settings: lysate, at 0.04 µM
Chain of Ribosomal protein S6 kinase alpha-3 (P51812 whole entry): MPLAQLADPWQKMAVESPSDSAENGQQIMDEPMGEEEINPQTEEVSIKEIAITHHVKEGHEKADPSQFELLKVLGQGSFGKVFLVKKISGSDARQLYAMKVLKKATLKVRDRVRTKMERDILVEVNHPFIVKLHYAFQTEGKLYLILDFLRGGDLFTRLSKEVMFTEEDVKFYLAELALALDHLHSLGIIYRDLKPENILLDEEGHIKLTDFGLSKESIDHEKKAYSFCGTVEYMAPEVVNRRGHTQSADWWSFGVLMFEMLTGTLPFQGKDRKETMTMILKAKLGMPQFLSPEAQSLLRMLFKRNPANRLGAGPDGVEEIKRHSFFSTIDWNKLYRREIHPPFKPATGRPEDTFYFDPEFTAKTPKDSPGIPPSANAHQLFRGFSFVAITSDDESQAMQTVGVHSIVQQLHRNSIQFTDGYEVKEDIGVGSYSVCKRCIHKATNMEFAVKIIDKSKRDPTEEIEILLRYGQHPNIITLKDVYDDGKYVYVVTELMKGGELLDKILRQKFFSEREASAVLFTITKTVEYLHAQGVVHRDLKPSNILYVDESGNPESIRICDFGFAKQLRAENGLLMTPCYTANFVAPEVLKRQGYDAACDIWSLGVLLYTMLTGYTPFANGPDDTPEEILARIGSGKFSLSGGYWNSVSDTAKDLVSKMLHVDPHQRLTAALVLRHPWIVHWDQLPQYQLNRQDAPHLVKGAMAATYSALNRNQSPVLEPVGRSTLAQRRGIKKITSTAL

[18] = molecular target: Receptor tyrosine-protein kinase erbB-2 (Homo sapiens, UniProt P04626); assay: Selectivity interaction (KinomeScan (DiscoverX)) EUB0000229b ERBB2; settings: at 10 µM
Chain of Receptor tyrosine-protein kinase erbB-2 (P04626 whole entry): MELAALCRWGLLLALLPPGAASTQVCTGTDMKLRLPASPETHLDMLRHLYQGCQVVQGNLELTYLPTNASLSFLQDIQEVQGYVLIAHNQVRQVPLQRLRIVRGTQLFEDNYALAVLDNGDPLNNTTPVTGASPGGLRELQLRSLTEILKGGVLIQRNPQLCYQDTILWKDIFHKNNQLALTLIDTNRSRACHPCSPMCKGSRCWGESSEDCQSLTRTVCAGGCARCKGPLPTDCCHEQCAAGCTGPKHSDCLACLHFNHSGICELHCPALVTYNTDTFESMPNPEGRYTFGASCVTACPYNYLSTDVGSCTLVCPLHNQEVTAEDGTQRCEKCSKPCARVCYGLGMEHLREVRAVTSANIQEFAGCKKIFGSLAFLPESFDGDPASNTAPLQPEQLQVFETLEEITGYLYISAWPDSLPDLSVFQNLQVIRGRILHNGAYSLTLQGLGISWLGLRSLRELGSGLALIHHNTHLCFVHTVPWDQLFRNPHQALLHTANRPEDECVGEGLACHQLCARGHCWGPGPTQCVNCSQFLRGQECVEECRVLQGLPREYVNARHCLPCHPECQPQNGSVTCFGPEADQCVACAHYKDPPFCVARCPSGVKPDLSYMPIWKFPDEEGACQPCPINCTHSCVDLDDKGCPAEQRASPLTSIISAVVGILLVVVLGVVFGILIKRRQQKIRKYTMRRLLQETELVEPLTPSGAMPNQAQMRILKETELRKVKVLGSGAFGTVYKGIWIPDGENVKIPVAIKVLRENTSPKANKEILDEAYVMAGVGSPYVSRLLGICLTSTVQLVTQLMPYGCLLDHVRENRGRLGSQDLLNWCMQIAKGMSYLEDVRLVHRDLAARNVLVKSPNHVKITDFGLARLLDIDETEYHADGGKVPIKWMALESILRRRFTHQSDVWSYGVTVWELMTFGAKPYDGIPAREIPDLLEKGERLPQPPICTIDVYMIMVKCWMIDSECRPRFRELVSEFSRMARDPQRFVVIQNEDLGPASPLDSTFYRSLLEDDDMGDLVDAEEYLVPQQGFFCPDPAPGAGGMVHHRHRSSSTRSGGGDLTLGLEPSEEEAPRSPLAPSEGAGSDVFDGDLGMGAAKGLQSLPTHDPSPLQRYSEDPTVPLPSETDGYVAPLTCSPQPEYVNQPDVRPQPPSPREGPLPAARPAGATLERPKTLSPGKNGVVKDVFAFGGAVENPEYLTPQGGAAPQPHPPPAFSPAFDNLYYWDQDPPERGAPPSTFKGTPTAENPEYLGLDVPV

[19] = molecular target: Serine/threonine-protein kinase tousled-like 2 (Homo sapiens) (UniProt Q86UE8); assay: Selectivity interaction (ProQinase) EUB0000171b TLK2
Chain of Serine/threonine-protein kinase tousled-like 2 (Homo sapiens) (Q86UE8 whole entry, looked up): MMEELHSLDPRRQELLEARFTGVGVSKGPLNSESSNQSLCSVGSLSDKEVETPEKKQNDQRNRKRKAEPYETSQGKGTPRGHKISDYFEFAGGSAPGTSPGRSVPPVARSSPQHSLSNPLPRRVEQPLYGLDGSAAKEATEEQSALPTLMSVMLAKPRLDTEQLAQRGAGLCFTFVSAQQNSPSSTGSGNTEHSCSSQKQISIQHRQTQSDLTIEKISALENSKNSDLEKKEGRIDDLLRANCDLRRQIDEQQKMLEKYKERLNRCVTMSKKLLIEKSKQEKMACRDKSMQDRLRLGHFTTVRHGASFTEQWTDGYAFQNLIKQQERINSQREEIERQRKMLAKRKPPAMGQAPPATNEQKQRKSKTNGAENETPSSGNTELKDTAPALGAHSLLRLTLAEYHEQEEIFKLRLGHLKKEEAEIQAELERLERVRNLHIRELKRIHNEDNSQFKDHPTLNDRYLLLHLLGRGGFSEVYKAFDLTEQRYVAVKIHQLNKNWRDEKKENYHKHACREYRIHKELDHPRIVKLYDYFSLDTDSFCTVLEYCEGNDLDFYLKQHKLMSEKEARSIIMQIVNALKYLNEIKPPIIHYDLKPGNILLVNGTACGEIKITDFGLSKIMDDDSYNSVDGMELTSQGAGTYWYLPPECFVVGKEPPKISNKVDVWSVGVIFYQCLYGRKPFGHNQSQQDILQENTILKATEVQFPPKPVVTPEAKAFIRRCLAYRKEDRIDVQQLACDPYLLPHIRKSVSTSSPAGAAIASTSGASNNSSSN

[20] = molecular target: Death-associated protein kinase 2 (Homo sapiens) (UniProt Q9UIK4); assay: Selectivity interaction (KinomeScan (DiscoverX)) EUB0000666a DAPK2; settings: at 10 µM
Chain of Death-associated protein kinase 2 (Homo sapiens) (Q9UIK4 whole entry, looked up): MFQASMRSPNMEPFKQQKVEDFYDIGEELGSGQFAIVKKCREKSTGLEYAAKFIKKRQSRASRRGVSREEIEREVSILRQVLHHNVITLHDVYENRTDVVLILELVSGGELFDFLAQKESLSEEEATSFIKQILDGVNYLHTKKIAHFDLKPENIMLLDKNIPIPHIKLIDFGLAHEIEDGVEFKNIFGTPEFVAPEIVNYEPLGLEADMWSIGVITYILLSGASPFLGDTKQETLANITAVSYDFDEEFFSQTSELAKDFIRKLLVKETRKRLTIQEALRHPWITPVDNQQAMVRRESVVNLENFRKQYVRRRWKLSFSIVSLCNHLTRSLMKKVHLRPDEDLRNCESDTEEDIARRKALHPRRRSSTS

[21] = molecular target: G protein-coupled receptor kinase 4 (Homo sapiens) (UniProt P32298); assay: Selectivity interaction (KinomeScan (DiscoverX)) EUB0000666a GRK4; settings: at 10 µM
Chain of G protein-coupled receptor kinase 4 (Homo sapiens) (P32298 whole entry, looked up): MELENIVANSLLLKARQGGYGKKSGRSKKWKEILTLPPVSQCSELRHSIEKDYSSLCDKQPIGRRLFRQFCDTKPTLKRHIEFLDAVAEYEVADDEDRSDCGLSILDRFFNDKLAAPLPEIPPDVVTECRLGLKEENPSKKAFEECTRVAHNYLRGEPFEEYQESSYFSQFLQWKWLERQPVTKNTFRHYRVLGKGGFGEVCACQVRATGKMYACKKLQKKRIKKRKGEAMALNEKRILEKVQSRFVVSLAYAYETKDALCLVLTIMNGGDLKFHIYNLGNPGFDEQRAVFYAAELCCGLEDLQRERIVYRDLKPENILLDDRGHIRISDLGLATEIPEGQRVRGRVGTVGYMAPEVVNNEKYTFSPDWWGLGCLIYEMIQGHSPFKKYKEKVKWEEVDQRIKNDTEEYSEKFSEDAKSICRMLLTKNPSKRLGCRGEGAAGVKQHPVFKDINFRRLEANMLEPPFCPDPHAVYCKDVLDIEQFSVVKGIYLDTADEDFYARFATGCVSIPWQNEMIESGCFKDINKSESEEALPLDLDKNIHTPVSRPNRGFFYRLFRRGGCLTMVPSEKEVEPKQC

[22] = molecular target: T1, Tyrosine-protein kinase Mer (Homo sapiens) (UniProt Q12866); assay: Selectivity interaction (Kinase panel (Z-LYTE Assay)) EUB0001632a MERTK; settings: at 10 µM
T1 sequence (whole entry): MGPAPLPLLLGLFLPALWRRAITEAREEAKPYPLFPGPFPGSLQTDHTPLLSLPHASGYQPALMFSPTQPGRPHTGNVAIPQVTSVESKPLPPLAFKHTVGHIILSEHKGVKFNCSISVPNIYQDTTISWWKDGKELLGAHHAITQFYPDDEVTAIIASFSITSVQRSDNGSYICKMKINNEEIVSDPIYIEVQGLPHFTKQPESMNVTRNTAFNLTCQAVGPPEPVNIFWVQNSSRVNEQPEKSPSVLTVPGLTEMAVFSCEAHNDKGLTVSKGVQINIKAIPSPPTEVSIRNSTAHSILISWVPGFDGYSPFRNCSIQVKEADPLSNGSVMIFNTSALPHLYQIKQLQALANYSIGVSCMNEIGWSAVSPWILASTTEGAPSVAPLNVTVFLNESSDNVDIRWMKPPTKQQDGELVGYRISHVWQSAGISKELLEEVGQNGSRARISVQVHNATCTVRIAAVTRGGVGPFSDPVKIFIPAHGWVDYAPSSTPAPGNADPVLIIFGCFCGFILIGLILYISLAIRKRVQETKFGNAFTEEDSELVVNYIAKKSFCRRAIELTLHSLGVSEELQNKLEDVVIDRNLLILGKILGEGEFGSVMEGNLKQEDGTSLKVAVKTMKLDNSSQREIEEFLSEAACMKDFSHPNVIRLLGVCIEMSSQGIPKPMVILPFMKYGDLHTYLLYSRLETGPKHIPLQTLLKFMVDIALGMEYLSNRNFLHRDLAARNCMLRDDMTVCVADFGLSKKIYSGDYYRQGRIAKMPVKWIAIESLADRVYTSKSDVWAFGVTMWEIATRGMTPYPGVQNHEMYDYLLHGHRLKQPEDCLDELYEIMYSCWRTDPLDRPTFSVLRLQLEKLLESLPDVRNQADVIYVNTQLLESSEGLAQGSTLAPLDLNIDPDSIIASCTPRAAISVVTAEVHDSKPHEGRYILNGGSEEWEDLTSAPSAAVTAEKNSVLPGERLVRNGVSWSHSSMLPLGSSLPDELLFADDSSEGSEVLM

Chain of LIM domain kinase 1 (Homo sapiens) (P53667 whole entry, looked up, the tested form may be a part): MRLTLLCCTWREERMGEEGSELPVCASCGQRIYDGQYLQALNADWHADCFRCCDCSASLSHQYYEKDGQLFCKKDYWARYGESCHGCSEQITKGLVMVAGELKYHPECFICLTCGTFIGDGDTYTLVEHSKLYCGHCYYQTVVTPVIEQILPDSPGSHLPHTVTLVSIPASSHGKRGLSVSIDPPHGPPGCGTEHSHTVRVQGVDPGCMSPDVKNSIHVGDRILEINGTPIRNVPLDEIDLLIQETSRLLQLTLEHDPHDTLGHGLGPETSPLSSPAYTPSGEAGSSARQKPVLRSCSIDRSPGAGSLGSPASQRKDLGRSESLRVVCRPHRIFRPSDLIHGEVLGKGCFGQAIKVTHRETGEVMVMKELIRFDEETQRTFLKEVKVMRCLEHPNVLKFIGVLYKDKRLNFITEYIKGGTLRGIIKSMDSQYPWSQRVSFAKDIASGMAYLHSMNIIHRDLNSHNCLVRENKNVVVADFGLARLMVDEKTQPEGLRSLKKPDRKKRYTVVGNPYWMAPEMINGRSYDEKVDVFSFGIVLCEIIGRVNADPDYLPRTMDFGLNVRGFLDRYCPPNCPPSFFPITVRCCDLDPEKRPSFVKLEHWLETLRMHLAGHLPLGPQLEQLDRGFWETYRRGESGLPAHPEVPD
Chain of Tyrosine-protein kinase Lck (P06239 2-509 limits assumed): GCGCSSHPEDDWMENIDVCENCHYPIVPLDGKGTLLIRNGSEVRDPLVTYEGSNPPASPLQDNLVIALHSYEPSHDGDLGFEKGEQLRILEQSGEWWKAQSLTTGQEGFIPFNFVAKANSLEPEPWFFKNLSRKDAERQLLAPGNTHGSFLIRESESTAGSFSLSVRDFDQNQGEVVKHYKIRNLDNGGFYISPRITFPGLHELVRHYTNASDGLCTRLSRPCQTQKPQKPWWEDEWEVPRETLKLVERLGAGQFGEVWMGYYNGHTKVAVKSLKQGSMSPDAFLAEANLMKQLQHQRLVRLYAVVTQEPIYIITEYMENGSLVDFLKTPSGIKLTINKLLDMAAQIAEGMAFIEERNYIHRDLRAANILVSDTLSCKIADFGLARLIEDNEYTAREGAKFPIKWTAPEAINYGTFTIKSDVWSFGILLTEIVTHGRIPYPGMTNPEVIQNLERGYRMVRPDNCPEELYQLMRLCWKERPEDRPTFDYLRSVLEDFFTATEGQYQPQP

Q: For CCc1cc(Nc2nccc(-c3c(-c4ccc(OC)c(C(=O)Nc5c(F)cccc5F)c4)nc4ccccn34)n2)c(OC)cc1N1CCC(N2CCN(S(C)(=O)=O)CC2)CC1, which % of inhibition [1] is on record?
A: 47%

Q: Which results are given for CCN(CC)CCCCNc1ncc2cc(-c3cc(OC)cc(OC)c3)c(NC(=O)NC(C)(C)C)nc2n1?
A: % of control [2]: 100%; % of control [3]: 100%

Q: With Nc1cnc(N2CCc3cc(S(=O)(=O)Nc4c(F)cc(Cl)cc4F)cc(N4CCCC4=O)c32)nc1 [TP-020n] as the compound, how does the % of control [4] read?
A: 93%

Q: O[C@H]1CC[C@H](Nc2ncc3nc(Nc4c(F)cc(F)cc4F)n([C@H]4CCOC4)c3n2)CC1 was tested. Which % of control [5] did it give?
A: 99%

Q: Which results are given for CNC(=O)Nc1ccc(-c2nc(N3CC4CCC(C3)O4)c3cnn(C4CCC5(CC4)OCCO5)c3n2)cc1?
A: % of control [6]: 100%; % of control [7]: 100%; % of control [8]: 100%; % of control [9]: 100%; % of control [10]: 100%; % of control [11]: 100%; % of control [12]: 99%; % of control [13]: 83%; % of control [14]: 100%

Q: C=CC(=O)Nc1cc(-n2c(=O)ccc3cnc4ccc(-c5ccc(NS(C)(=O)=O)cc5)cc4c32)ccc1C was tested. Which % of control [15] did it give?
A: 100%

Q: With C=CC(=O)Nc1ccc(C(=O)Nc2[nH]nc3c2CN(C(=O)N[C@H](CN(C)C)c2ccccc2)C3(C)C)cc1 as the compound, how does the % of engagement [16] read?
A: -3.1%

Q: How did the % of inhibition [17] turn out when CC[C@@H]1[C@H](F)C(=O)N[C@@H]1COc1nccc2cc(C(N)=O)c(OC)cc12 [ZIMLOVISERTIB] was run?
A: -18.2%

Q: For COc1cc(N(C)c2ccnc3ccc(C(F)(F)F)cc23)cc(OC)c1OC, which % binding [18] is on record?
A: 62%

Q: Which results are given for C=CC(=O)Nc1cccc(C(=O)Nc2ccc(Nc3cc(-c4[nH]c(SC)nc4C)ccn3)cc2)c1?
A: % of control ([19]; at 1 µM): 92%; % of control ([19]; at 5 µM): 83%

Q: O=C(NOC[C@H](O)CO)c1ccc(F)c(F)c1Nc1ccc(I)cc1F was tested. Which % of control [20] did it give?
A: 100%

Q: What about the % of control [21] of the same compound?
A: 100%

Q: How did the % of control [22] turn out when Cn1cc(-n2cnc3c(NCc4nc5cc(Cl)c(Cl)cc5[nH]4)nc(N4CCOCC4)nc32)cn1 was run?
A: 4.55%
